According to patent US20210000890A1, “COMPOSITIONS AND METHODS FOR DENTAL CARE” (The State of Israel, Ministry of Agriculture & Rural …, priority 2019, published 2021):

Legend:
[1] = system: S. mutans biofilm; assay: Mono and dual-species biofilm formation, biofilm biomass by Crystal Violet staining; type: cell-based, Streptococcus mutans UA159; conditions: S. mutans cultured as monospecies in TY with the sugar alcohol, 24 h
Method: For B. subtilis mono-species biofilm, a starter culture was diluted 1:100 (to obtain final O.D (600 nm)=0.07)) into TY or TY supplemented with either 2% sucrose or sorbitol or mannitol at various concentrations (10, 25,50,100 or 125 mM) in 96-well plate (Nunc, Roskilde, Denmark). The plate was incubated at 37° C. in 95% air/5% CO2 for 24 h.
For S. mutans mono-species biofilm, overnight cultured S. mutans (O.D (600 nm)=1)) were diluted 1:10 into TY or TY supplemented with 2% sucrose (served as controls) or TY supplemented with different concentration of sorbitol or mannitol (10, 25,50,100 or 125 mM) into 96-well plate (Nunc). The plate was incubated at 37° C. in 95% air/5% CO2 for 24 h. For dual-species biofilm, cells of B. subtilis and S. mutans were grown into 96-well plate as follows: to fresh TY or TY supplemented with 2% sucrose or different concentration of sorbitol or mannitol (10, 25, 50, 100 or 125 mM) were introduced overnight cultured S. mutans (diluted by a ratio 1:10, approximately 2.5×10^7 CFU) and B. subtilis (diluted by a ratio 1:100, approximately 2.5×10^5 CFU). […]
The generated submerged biofilms were washed carefully twice with saline solution. […] The extract was placed in a new 96-well plate and O.D. at 595 nm was measured using a plate reader instrument (infinite PRO2000, NEOTEC Scientific Instrumentation Ltd. Camspec, Cambridge, United Kingdom)^31,32.

[2] = system: S. mutans; assay: Growth curve analysis (O.D. 595 nm); type: cell-based, Streptococcus mutans UA159; conditions: for growth of S. mutans: M9 minimal medium, 50 mM as sole carbon source, 16 h; for lag phase of S. mutans: TY medium supplemented with the sugar alcohol, different concentrations
Method: For growth curve analysis, B. subtilis or S. mutans cultures grown as described above, were diluted (1:100 or 1:10 respectively) in TY or TY supplemented with 2% sucrose or different concentration of sorbitol or mannitol. When needed, the bacteria were diluted in M9 medium with 0.2% glucose or 50 mM sorbitol/mannitol. The cultures were then incubated at 37° C. overnight with slight shaking. The growth was recorded every hour using optical density measurement at 595 nm (infinite […]).

[3] = system: gutB (sorbitol dehydrogenase); assay: Relative gene expression by real-time RT-PCR; type: cell-based, B. subtilis; conditions: TY with 50 mM sugar alcohol vs TY alone (=1)
Method: (§1) The cultures of either B. subtilis or S. mutans grown as described above, were diluted (1:100 or 1:10 respectively) in TY or TY supplemented with 50 mM sorbitol or mannitol. Next, B. subtilis were grown 37° C. at 150 rpm while S. mutans at 37° C. in 95% air/5% CO2. Samples for each treatment were taken after 3, 6, 12, 18 and 24 hours. One mL of RNA protect (Qiagen, Hilden, Germany) was added to each sample and incubated at RT for 5 min. After, the cells were centrifuged at 4,000×g for 10 min. RNA extraction preformed using GenUP total RNA kit (biotechrabbit, Hennigsdorf, Germany) according to the manufacture's protocol. Reverse transcription was performed using qScript cDNA synthesis kit (Quantabio, Beverly, Mass., USA).The synthesized cDNA was later used for the real-time PCR analysis of key enzymes in the metabolic pathway of S. mutans and B. subtilis (Sorbitol dehydrogenase (gutB) or Mannitol-1-phosphate 5-dehydrogenase (mltD)). The RT-PCR reaction was performed as described previously^33. Briefly, RT-PCR reaction mixture (20 μL) contained 1×SYBR Green (Invitrogen, California, USA), 1 μL cDNA sample and […] of the appropriate forward and reverse PCR primers. PCR conditions included an initial denaturation at 95° C. for 10 min, followed by a 40-cycles of amplification, consisting of denaturation at 95° C. for 15 s and annealing and extension at 60° C. for 1 min. Contamination by residual genomic DNA was determined from control reactions devoid of reverse transcriptase. The expression levels of all the tested genes by real-time PCR were normalized using the 16S rRNA gene of S. mutans as an internal standard ([…] et al., 2007) or sigA gene for B. subtilis.

[4] = system: mltD (mannitol-1-phosphate 5-dehydrogenase); assay: Relative gene expression by real-time RT-PCR; type: cell-based, B. subtilis; conditions: TY with 50 mM sugar alcohol vs TY alone (=1)
Method: as §1

| Structure (SMILES) | S. mutans monospecies biofilm compared to the TY control [1] | growth of S. mutans [2] | lag phase of S. mutans [2] | maximal induction rate of gutB ([3]; after 3 hours) [folds] | induction of gutB ([3]; after 6 hours until 24 hours) [fold] | maximal induction rate of mltD ([4]; after 3 hours) [folds] | induction of mltD ([4]; after 6 hours until 24 hours) [fold] |
| --- | --- | --- | --- | --- | --- | --- | --- |
| OC[C@@H](O)[C@@H](O)[C@H](O)[C@@H](O)CO [sorbitol] | enhanced biofilm | did not grow | approximately 3 hours | 2 | 1.6 |  |  |
| OC[C@@H](O)[C@@H](O)[C@H](O)[C@H](O)CO [mannitol] | enhanced biofilm | did not grow | approximately 3 hours |  |  | 1.6 | 1.2 |
